Reference: ChEMBL document CHEMBL1201862, “PubChem BioAssay data set” (2004)
The source made the active and inactive calls.

What was measured:
[1] = target: T1, Replicative DNA helicase DnaB (Mycobacterium tuberculosis, UniProt P9WMR3); experiment: DnaB intein splicing inhibitors, dose response, biochemical, cell-free fluorescence (AID 449749); type: functional
T1 sequence (P9WMR3 whole entry): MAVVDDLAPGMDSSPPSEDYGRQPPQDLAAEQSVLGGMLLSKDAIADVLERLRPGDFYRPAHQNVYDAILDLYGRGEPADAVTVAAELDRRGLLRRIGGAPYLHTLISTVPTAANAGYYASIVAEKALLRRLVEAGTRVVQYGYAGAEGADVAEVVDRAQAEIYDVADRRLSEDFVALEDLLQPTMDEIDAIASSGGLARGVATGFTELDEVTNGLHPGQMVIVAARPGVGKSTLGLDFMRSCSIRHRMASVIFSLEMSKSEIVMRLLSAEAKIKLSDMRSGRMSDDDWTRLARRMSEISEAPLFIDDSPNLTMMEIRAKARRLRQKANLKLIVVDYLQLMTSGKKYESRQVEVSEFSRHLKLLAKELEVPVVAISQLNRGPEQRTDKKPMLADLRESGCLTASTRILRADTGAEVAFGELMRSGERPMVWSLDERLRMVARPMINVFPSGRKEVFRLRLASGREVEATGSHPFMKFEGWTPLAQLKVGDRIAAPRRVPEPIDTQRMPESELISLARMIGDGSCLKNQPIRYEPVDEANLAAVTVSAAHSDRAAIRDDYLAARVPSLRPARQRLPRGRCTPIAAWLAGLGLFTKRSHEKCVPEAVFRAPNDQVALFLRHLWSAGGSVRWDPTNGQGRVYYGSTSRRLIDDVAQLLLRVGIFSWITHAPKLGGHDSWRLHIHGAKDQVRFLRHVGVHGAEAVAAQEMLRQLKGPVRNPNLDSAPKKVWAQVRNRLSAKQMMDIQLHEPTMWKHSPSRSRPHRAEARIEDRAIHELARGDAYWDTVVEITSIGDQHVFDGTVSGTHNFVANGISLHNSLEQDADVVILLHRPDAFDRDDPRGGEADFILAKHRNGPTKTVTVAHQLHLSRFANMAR

[2] = target: T2, Protein RecA (Mycobacterium tuberculosis, UniProt P9WHJ3); experiment: Fluorescence Cell-Free Homogeneous Dose Retest to Identify Inhibitors of RecA-Intein Splicing Activity. [Related pubchem assays (depositor defined):AID2097, AID2223, AID489010, AID492950]; type: functional
T2 sequence (P9WHJ3 whole entry): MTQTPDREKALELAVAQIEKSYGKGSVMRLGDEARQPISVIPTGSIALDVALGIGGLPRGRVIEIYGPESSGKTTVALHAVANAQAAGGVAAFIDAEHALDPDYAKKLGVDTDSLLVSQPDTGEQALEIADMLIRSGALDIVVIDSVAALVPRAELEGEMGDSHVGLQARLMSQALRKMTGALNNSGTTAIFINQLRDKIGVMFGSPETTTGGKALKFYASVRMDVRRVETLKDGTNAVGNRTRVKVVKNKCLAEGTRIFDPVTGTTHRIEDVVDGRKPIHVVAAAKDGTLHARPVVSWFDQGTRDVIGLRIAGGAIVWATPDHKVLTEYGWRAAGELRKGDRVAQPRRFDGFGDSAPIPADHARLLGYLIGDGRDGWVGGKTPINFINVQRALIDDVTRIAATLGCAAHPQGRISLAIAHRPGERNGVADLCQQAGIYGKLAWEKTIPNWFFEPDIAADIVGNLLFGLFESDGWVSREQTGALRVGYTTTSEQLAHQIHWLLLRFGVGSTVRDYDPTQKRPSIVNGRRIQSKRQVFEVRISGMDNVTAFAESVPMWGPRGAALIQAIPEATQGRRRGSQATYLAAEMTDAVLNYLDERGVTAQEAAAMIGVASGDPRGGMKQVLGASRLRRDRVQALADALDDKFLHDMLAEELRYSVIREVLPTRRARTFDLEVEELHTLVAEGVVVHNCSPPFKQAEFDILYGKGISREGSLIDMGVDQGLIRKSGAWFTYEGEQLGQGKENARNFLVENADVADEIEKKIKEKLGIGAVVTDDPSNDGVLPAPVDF

[3] = target: T3, Protein skinhead-1 (Caenorhabditis elegans, UniProt P34707); type: functional
T3 sequence (P34707 whole entry): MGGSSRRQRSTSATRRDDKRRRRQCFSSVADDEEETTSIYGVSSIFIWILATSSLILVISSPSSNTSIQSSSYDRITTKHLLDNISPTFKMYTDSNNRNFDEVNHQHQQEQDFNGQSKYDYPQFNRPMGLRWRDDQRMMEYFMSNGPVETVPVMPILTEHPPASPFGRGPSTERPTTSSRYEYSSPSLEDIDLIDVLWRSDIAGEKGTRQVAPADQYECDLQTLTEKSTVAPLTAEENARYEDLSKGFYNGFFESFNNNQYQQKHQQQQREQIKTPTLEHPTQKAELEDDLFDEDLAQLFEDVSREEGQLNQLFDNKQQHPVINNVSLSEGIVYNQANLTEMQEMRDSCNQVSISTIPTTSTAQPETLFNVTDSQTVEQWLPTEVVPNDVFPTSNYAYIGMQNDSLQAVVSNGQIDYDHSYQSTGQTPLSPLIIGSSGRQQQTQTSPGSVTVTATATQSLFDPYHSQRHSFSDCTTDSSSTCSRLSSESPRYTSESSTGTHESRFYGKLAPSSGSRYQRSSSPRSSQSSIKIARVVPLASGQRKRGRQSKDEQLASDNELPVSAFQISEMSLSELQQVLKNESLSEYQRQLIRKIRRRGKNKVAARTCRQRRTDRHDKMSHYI

[4] = inhibitors of firefly luciferase expression or activity, dose response, H4 neuroglioma cells, luminescence (AID 1990); type: functional, cell-based
[5] = Luminescence Cell-Based Dose Response HTS to Identify Inhibitors of 5'UTR Stem-Loop Driven Prion Protein mRNA Translation in H4 Neuroglioblastoma Cells. [Related pubchem assays: 1827 (Project Summary), 1813 (Primary HTS)]; type: functional
[6] = inhibitors of SNCA 5'UTR-driven reporter translation, confirmation, H4 neuroglioma cells, luminescence (AID 1988); type: functional, cell-based
[7] = target: T4, High affinity choline transporter 1 (Homo sapiens, UniProt Q9GZV3); experiment: CHT inhibitors, dose response, cell-based, 5-point CRC, membrane potential dye (AID 504840); type: functional
T4 sequence (Q9GZV3 whole entry): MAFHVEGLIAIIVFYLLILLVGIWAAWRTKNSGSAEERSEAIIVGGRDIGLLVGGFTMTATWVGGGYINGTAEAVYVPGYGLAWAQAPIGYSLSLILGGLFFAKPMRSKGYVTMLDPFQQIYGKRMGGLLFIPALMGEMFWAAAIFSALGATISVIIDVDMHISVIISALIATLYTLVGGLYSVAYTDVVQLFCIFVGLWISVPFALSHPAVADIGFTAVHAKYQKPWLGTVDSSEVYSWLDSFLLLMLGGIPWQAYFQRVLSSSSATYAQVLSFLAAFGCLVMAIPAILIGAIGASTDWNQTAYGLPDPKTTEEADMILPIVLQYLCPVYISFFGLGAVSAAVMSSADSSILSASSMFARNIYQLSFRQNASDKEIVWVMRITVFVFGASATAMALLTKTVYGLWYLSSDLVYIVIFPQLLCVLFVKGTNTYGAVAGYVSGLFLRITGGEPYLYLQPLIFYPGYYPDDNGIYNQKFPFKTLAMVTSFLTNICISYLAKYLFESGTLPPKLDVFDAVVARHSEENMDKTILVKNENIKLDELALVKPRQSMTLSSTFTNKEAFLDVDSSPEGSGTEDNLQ

[8] = HEp-2 cell cytotoxicity, dose response, cytotoxicity control for RSV inhibitor project, HTS (AID 2410); type: functional; details: human respiratory syncytial virus
[9] = target: T5, Rac GTPase-activating protein 1 (Homo sapiens, UniProt Q9H0H5); experiment: MgcRacGAP GTPase-activating activity inhibitors, confirmation, biochemical, ADP Hunter fluorescence, primary and confirmatory (AID 624330); type: functional
T5 sequence (Q9H0H5 whole entry): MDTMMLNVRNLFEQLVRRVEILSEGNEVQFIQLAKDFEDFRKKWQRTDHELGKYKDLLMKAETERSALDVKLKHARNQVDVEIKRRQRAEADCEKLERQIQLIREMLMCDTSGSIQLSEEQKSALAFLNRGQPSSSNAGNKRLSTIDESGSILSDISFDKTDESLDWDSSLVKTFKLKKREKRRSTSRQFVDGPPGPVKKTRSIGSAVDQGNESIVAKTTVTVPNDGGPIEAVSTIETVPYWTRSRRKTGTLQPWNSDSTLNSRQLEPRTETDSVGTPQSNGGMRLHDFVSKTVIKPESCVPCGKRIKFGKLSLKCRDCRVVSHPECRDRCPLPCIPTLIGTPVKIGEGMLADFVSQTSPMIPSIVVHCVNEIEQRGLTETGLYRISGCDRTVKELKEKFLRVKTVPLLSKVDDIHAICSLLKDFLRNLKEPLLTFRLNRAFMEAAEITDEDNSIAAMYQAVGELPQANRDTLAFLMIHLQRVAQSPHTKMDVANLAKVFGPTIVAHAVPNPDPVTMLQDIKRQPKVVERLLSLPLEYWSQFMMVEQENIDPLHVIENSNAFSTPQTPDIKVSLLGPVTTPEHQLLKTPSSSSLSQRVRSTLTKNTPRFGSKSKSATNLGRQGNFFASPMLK

In the case of `COc1ccc(N2C(=O)/C(=C\c3ccco3)N=C2SCC(=O)NC(C)(C)C)cc1Cl`, the AC50 [1] is reported as > 380 µM (inactive) and the EC50 [2] is reported as 20.7 µM (inconclusive).

In the case of `COc1ccc(C2C3=C(N=C4SCC(=O)N42)c2ccccc2CC3)cc1OC` (configuration not stated), the IC50 [3] is reported as > 100 µM (inactive).

With `Cc1csc2nc(CNS(=O)(=O)c3ccc4c(c3)CCCC4)cn12` the IC50 [3] was > 100 µM (inactive).

For `CCC(NC(C)c1ccccc1)=C1C(=O)NC(=O)NC1=O` (configuration not stated), the EC50 [4] was 18 µM (active), the EC50 [5] was > 120 µM (not active) and the EC50 [6] was 18.2 µM (active).

With `COCCCNC(=O)c1ccc(OC)c(OC2CCN(C(C)C)CC2)c1` the IC50 [7] was 2.51 µM (active).

With `Clc1ccc(-c2cnc3ccccc3n2)cc1` the IC50 [3] was 92 µM (inactive).

With `Cc1ccc(CSc2nc3ccccc3c(=O)n2Cc2ccco2)cc1` the IC50 [3] was > 100 µM (inactive).

In the case of `Cc1cc(C(=O)CSc2n[nH]c(N)n2)c(C)n1-c1cc(F)ccc1F`, the IC50 [7] is reported as 11.2 µM (active).

For `CCc1nc2ccccc2c(C(=O)OCC(=O)N(CCOC)c2c(N)n(Cc3ccccc3)c(=O)[nH]c2=O)c1C`, the IC50 [3] was > 100 µM (inactive).

With `CCn1c(CSc2nnc(-c3ccncc3)n2CCOC)nc2cc(C(=O)O)ccc21` the IC50 [3] was > 100 µM (inactive).

In the case of `CCCNc1nc2c(c(=O)n(C)c(=O)n2C)n1CCC(C)C`, the IC50 [7] is reported as 6.03 µM (active).

In the case of `COCc1n[nH]c2c1C(c1ccc(OC)cc1)C(C#N)=C(N)O2` (configuration not stated), the AC50 [1] is reported as 25.8 µM (active) and the EC50 [2] is reported as 6.79 µM (active).

With `COc1ccccc1N1CCN(CCC(=O)Nc2ccc3c(c2)OCO3)CC1` the IC50 [3] was > 100 µM (inactive).

With `N#C/C(=C\c1cc(Cl)c(OCc2ccc(Cl)cc2)c(Cl)c1)C(N)=O` the CC50 [8] was 36.8 µM (active), the AC50 [1] was > 380 µM (inactive) and the EC50 [2] was > 380 µM (inconclusive).

For `CCn1cnc2cc(NCc3ccc(OC)cc3)ccc21`, the IC50 [9] was 92.1 µM (active).

For `COc1ccc(C(CNC(=O)c2cc(S(=O)(=O)NCc3ccccc3)ccc2C)N2CCOCC2)cc1` (configuration not stated), the IC50 [7] was 11 µM (active).
